# From US20150099653A1, “PROCESS OF DIAGNOSTIC, PROGNOSTIC AND THERAPEUTIC MONITORING OF SOLID TUMORS” (CENTRE NATIONAL DE LA RECHERCHE SCIENTIFIQUE, priority 2011, published 2015)
# B1: Ko.RBD.mFC immunoadhesin (KoRV SU receptor binding domain fused to mouse IgG Fc) (Fc fusion)
# chain: NQQHNNPHQPMTLTWQVLSQTGSVVWEKKAVEPPWTWWPSLEPDVCALVAGLESWDIPELTASASQQARPPDSNYEHAYNQITWGTLGCSYPRARTRIARSQFYVCPRDGRSLSEARRCGGLESLYCKEWGCETAGTAYWQPRSSWDLITVGQGHPTGTCERTGWCNPLKIEFTEPGKRFRNWLQGRTWGLRFYVTGHPGVQLTIRLVITSPPPVVVG
# notes: also called KoRV.RBD-Mfc; KoRV.RBD.MFC; not shown: mouse IgG Fc fragment
# B2: H2.RBD.mFC immunoadhesin (HTLV-2 SU receptor binding domain fused to mouse IgG Fc) (Fc fusion)
# chain: QQSRCTLTVGISSYHSSPCSPTQPVCTWNLDLNSLTTDQRLHPPCPNLITYSGFHKTYSLYLFPHWIKKPNRQGLGYYSPSYNDPCSLQCPYLGCQSWTCPYTGPVSSPSWKFHSDVNFTQEVSQVSLRLHFSKCGSSMTLLVDAPGYDPLWFITSEPTQ
# notes: also called HTLV-2.RBD-Mfc; RBD derived from HTLV-2; not shown: mouse IgG Fc fragment
# Columns and labels:
# [1] = system: line coming from HBCx-4A; test: Cisplatin dose response kinetic, cell viability (OD 450 nm); format: cell-based, human; details: HBCx-4A line on plastic
# Protocol: FIG. 16A: cisplatine dose response kinetic
# from top to bottom: white circle: no treatment (no tt), white square: 35 μM, white triangle (top point): 45 μM, white triangle (bottom point): 55 μM, white diamond: 65 μM, black circle: […]
# [2] = system: HBCx-41 in vitro cultured dissociated cells; test: In vitro treatment of ex vivo cultured dissociated cells with anti-cancer drugs, WST-1 viability; format: cell-based, human; details: HBCx-41 dissociated cells, incremental concentrations, 72 h incubation
# Protocol: In vitro treatments with anti-cancer drugs were performed in flat bottomed 96 well microplates. Equal number of viable cells (40 000) were distributed in each well and allowed for attachment for 3 days. […] After 72 h incubation in presence or absence of compounds, WST-1 (based on the cleavage of the tetrazolium salt by respiratory mitochondrial enzyme, Roche diagnostic) was added and incubated following manufacturer instructions. Optic density was read on a microplate reader at 450 nm. A sigmoid analytical curve gave the 50% inhibitory concentration (IC50).
# [3] = system: breast tumor xenograft (HBCx-4A, HBCx-16, HBCx-8, HBCx-17); test: Cisplatin treatment in four models of breast tumor xenograft, RBD expression; format: in vivo, mouse
# Description: The four models are the followings: HBCx-4A (non-responsive), HBCx-16 (responsive), HBCx-8 (responsive), HBCx-17 (responsive). […] Left histograms (FeLVC.RBD): from left to right HBCx-4A, HBCx-16, HBCx-8, HBCx-17. Right histograms (BLV.RBD): from left to right HBCx-4A, HBCx-16, HBCx-8, HBCx-17.
# [4] = system: line coming from HBCx-4A; test: RBD expression after in vitro cisplatin (MFI, flow cytometry); format: cell-based, human
# Protocol: FIG. 16B: PERV-A.RBD • x-axis: time in hours • y-axis: MFI (mean of fluorescent intensity)
# (§1) For metabolite transporters labelling, 200 000 to 500 000 viable cells were incubated at 37° C. in RBD premix consisting in 3 μl of a RBD mouse Fc tagged plus 3 μl of a RBD rabbit Fc tagged diluted in 50 μl of CO2 independent medium and washed once before secondary staining with fluorescent conjugated antibodies against mouse (goat anti-mouse AF488, Cell Signalling Technology) and rabbit (goat anti-rabbit AF647, Cell Signalling Technology). Rat anti-mouse Pan H-2 added in a third step allowed for the discrimination between human and mouse cells.
# [5] = system: line coming from HBCx-4A; test: Everolimus dose response kinetic, WST (OD 450 nm); format: cell-based, human
# Protocol: (§2) FIG. 17A to 17H presents the in vitro effect of everolimus on a line coming from HBCx-4A and put on plastic in function of time.
# FIG. 17A: everolimus dose response kinetic
# from top to bottom: no treatment (nott), black circle: 0.001 μM, white square: 0.1 μM, black triangle: 10 μM, bottom white square: 50 μM.
# At 10 μM, the dose of everolimus is a cytotoxic dose. • x-axis: time in hours • y-axis: WST (OD 450 nm)
# [6] = system: breast tumor xenograft (HBCx-3); details: HBCx-3, short times; cited from earlier work
# [7] = system: line coming from HBCx-4A; test: RBD expression after in vitro everolimus (MESF, flow cytometry); format: cell-based, human; details: 0, 1, 100, 1000 nM; 6, 24, 72 h
# Protocol: as §2
# FIGS. 17B and 17C: 6 hours after everolimus.
# FIGS. 17D and 17E: 24 hours after everolimus.
# FIGS. 17F to 17H: 72 hours after everolimus. […]
# High sensitivity is a challenge in flow cytometry. […] To visualize thin variation of expression level in multiple channel protocol, we need one unique unit, as fluorescence arbitrary units read on the same cytometer from two different fluorophores in their own channel cannot be confronted. Molecule of Equivalent Soluble Fluorochrome (MESF) is given by regression of arbitrary fluorescence measured versus standardisation beads coated with known amounts of same fluorochrome used in cells staining (AF647 and AF488 MESF quantum beads, BangsLab) acting as intra- and interexperiments calibrator. Measured fluorescence depends on lasers power, photomultiplicator tube settings, pH of staining medium. Fluorescence measured is proportional to the number of fluorochromes linked to the antibody used, itself correlated to the number of antibody bound to specific sites. […] For RBDs, quantification of non-specific signal was determined using secondary conjugated antibody alone.
# [8] = system: breast tumor xenograft (HBCx-3); test: Everolimus treatment in breast tumor xenograft, RBD expression; format: in vivo, mouse; details: HBCx-3, 2.5 mg/kg i.p.
# Protocol: FIG. 12 presents the effect of an everolimus treatment (2.5 mg/kg, i.p.—intraperotoneal) in a model of breast tumor xenograft (HBCx-3) known to be responsive to everolimus treatment at short times.
# Mice of example 1 have been used.
# Four RBDs are studied: • Circle: Xeno.RBD • Triangle: Ampho.RBD • Diamond: FeLVC.RBD • Square: RD114.RBD
# The human breast cancer specimens were obtained with informed consent from the patients undergoing surgery. Fresh tumor fragments were grafted into the interscapular fat pad of 8-12 week old female Swiss nude mice, under avertin anaesthesia. Mice were maintained in specific pathogen-free animal housing (Institut Curie, Paris, France) and received estrogen (17 mg/ml) diluted in drinking water. Xenografts appeared at the graft site 2 to 8 months after initial transplantation. They were subsequently transplanted from mouse to mouse and formally established since third in vivo passage (Marangoni, Elisabetta A new model of patient tumor-derived breast cancer xenografts for preclinical assays Clin Cancer Res. 2007 Jul. 1; 13(13):3989-98). All the experiments were performed in accordance with the UKCCCR guidelines about animal ethics in neoplasia research (British Journal of Cancer (2010) 102, 1555-1577). Present experiments were all performed in well-established tumor models and required a minimal tumor size of 600 mm^3 to collect enough cellular material. In all cases, particular attention through careful clinical examination has been paid to ensure that the recipient mice remained in a general good health to avoid as far as possible necrotic tumors. All tumors were aseptically excised from ethically sacrificed mice with autoclaved surgical material. NEDB and culture media w/o FCS are both equivalent for a short period before processing.
# as §1
# [9] = target: T1, PiT1 (human, UniProt Q8WUM9 1-679); test: flow cytometry, RBD-Fc labelling of viable human breast cancer xenograft cells (HBCx-3, -4A, -8, -24, -30), read out in MESF
# T1 construct: whole, on cells
# T1 sequence: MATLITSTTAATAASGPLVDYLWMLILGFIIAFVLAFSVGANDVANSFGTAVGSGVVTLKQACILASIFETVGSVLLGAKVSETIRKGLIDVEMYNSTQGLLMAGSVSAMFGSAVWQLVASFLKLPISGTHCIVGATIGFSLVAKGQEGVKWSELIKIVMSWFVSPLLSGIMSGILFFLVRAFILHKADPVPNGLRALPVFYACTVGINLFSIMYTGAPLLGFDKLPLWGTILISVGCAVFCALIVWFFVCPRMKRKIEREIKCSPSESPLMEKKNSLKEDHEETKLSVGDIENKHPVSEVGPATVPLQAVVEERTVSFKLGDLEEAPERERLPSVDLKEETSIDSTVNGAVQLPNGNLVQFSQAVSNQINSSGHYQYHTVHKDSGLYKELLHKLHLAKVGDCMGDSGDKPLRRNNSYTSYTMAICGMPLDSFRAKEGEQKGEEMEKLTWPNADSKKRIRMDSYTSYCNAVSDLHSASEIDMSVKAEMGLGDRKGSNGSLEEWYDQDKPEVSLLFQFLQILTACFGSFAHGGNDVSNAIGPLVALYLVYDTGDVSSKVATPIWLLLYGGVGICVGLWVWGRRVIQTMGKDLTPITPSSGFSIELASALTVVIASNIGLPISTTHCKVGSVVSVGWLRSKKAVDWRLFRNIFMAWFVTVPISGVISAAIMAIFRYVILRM
# [10] = target: T2, Glut1 (human, UniProt P11166 1-492); test: as above
# T2 construct: whole, on cells; also called glucose transporter GLUT-1
# T2 sequence: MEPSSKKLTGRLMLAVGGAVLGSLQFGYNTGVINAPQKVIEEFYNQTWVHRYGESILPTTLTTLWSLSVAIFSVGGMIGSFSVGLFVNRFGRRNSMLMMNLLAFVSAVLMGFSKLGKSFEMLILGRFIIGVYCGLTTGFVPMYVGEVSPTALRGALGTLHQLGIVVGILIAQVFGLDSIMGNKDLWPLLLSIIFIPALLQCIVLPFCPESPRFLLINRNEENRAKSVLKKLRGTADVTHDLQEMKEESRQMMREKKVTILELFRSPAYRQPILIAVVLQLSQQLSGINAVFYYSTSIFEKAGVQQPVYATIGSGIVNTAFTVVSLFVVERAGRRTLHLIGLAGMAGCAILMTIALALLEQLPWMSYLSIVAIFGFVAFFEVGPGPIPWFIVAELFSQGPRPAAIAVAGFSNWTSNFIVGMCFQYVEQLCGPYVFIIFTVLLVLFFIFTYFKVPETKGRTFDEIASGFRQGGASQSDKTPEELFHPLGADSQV
# [11] = 24 and 48 h, both doses (50 and 100 μM)
# [12] = everolimus, HBCx-4A line on plastic
molecule,measurement,setting,value
"N.N.[Cl][Pt][Cl] [cisplatin, Cisplatin]",cytostatic dose,[1],55 µM
same,toxicity (cell viability %),[2],dose dependent toxicity
same,response of the model to treatment,"[3]; HBCx-4A, 6 mg/kg i.p.",non-responsive
same,response of the model to treatment,"[3]; HBCx-8, 6 mg/kg i.p.",responsive
same,response of the model to treatment,"[3]; HBCx-16, 6 mg/kg i.p.",responsive
same,response of the model to treatment,"[3]; HBCx-17, 6 mg/kg i.p.",responsive
same,expression of FeLVC.RBD,"[3]; non responsive model (HBCx-4A), 72 h post treatment, 6 mg/kg i.p.",increase
same,expression of BLV.RBD,"[3]; responsive and non responsive models, 72 h post treatment, 6 mg/kg i.p.",no difference
same,expression of FeLVC.RBD,"[3]; responsive model HBCx-16, 72 h post treatment, 6 mg/kg i.p.",decrease
same,AmphoMLV.RBD expression at 100 μM compared with 50 μM,[4]; 100 μM vs 50 μM,higher than at 50 μM
same,RD114.RBD expression at 100 μM compared with 50 μM,[4]; 100 μM vs 50 μM,higher than at 50 μM
same,expression of AmphoMLV.RBD (MFI),[4]; [11],increased
same,expression of RD114.RBD (MFI),[4]; [11],increased
same,expression of PERV-A.RBD (MFI),"[4]; 48 h, both doses (50 and 100 μM)",increased
"CC(=O)O[C@@]12CO[C@@H]1C[C@H](O)[C@@]1(C)C(=O)[C@H](O)C3=C(C)[C@@H](OC(=O)[C@H](O)[C@@H](NC(=O)OC(C)(C)C)c4ccccc4)C[C@@](O)([C@@H](OC(=O)c4ccccc4)[C@H]21)C3(C)C [docetaxel, Docetaxel]",toxicity (cell viability %),[2],dose dependent toxicity
CO[C@H]1C[C@@H]2CC[C@@H](C)[C@@](O)(O2)C(=O)C(=O)N2CCCC[C@H]2C(=O)O[C@H]([C@H](C)C[C@@H]2CC[C@@H](OCCO)[C@H](OC)C2)CC(=O)[C@H](C)/C=C(\C)[C@@H](O)[C@@H](OC)C(=O)[C@H](C)C[C@H](C)/C=C/C=C/C=C/1C [everolimus],effect on the line at 0.001 μM,[5]; everolimus 0.001 μM,proliferation of the line
same,cytostatic dose,[5]; [12],0.1 µM
same,cytotoxic dose,[5]; [12],10 µM
same,response of the model to treatment,[6],responsive
same,response of RBDs (MESF),[7],time and dose dependant
same,variation of Ampho.RBD expression,[8],vary later
same,variation of FeLVC.RBD expression,[8],vary at the beginning of the treatment
same,variation of RD114.RBD expression,[8],higher than the one of Ampho
same,variation of Xeno.RBD expression,[8],vary at the beginning of the treatment
same,expression of RBDs with the treatment,"[8]; Xeno, Ampho, FeLVC, RD114 RBDs",varies significantly
B1,binding result,[9],binds
B2,binding result,[10],binds
